Results on six compounds are retold here after patent US20050085644A1, “Novel 3-aryl-2,5-dihydroxy-1,4-benzoquinone derivatives, their preparation method and pharmaceutical compositions containing same” (priority 2002, published 2005).

One data set addresses T1, human insulin receptors (Homo sapiens, UniProt P06213).
T1 construct: expressed in transfected cells; host or cells: CHO-HIR (hamster ovary cells)
Put plainly: Activation (phosphorylation) of insulin receptors in CHO-HIR cells, immunoblotting. It is filed as cell-based. Conditions: 2 h, 10^−5M, two hours at 37° C., read-out: activation percentage for insulin receptors (phosphorylation in relation to 50 nM insulin fixed at 100%). Here is the method:
(§1) The pharmacological effect of the compounds of the invention on cellular signaling is evaluated in vitro using hamster ovary cells transfected with human insulin receptors (CHO-HIR). The techniques employed are from TAVARE and DENTON (1988, BIOCHEM. J., 250, 509-519) and TAVARE et al. (1988, Biochem. J., 253, 783-788) modified by ISSAD et al. (1991, Biochem. J., 275, 15-21) and COMBETTES-SOUVERAIN et al. (1997, Diabetologia, 40, 533-540).
(§2) The products are studied at 10^−5M under incubation for two hours at 37° C. with CHO-HIR in culture. A negative control (solvent) and a positive control (insulin 50 nM, 5 min incubation) are used in parallel in the same test. […]
(§3) The phosphorylation of the insulin receptors (IR) and the phosphorylation of protein kinase B are evaluated by immunoblotting as follows.
The IR are extracted over wheatgerm lectin; the samples are then subjected to electrophoresis on 7.5% polyacrylamide gel and subjected to an electric transfer onto PDVF membrane in a semi-dry system. […] After dehydridisation and then rehydridisation with an anit-insulin receptor β subunit antibody (βsubunit, ref 06492, Upstate Biotechnology), the total IR quantity deposited on blot is evaluated by chemiluminescence and the phosphorylation rate of the receptors is related to the total receptor quantity deposited. […]

The next data set concerns protein kinase B. Put plainly: Activation (phosphorylation) of protein kinase B in CHO-HIR cells, immunoblotting. In kind it is cell-based, hamster. Conditions: 10^−5M, two hours at 37° C. Here is the method: as §1, §2, §3
Similarly, the state of phosphorylation of protein kinase B following electrophoresis of the samples on 10% polyacrylamide gel is determined by chemiluminescence after immunoblotting with anti-phospho protein kinase B antibodies (phospho Akt(Ser473) antibody, ref 9271, Cell Signaling) and then related to the total protein kinase B quantity (AKT antibody, ref 9272, Cell signaling).
The phosphorylation induced by the compounds of the invention is expressed as a percentage in relation to 50 nM insulin, fixed at 100% activation.

A further data set deals with ob/ob C57BL/6 mice. Kind of data set: Chronic in vivo study in ob/ob mice. The following applies: female ob/ob C57BL/6 mice, 9 days, 10 or 20 mg/kg po. The method, then:
11-week-old female ob/ob C57BL/6 mice randomly selected in terms of basal glycaemia from animals that have been fed are treated for 9 days with the test compound at 10 or 20 mg/kg po and compared with a control group receiving 1% HEC. Biological balance (glycaemia, insulinaemia, triglyceridaemia) is reached on the 10th day with the animals that have been fed, the final treatment having taken place the day before. The results are expressed as percentage variations in relation to D0 (glycaemia, body weight) compared with the control group.

T1 sequence (P06213 28-758 limits assumed): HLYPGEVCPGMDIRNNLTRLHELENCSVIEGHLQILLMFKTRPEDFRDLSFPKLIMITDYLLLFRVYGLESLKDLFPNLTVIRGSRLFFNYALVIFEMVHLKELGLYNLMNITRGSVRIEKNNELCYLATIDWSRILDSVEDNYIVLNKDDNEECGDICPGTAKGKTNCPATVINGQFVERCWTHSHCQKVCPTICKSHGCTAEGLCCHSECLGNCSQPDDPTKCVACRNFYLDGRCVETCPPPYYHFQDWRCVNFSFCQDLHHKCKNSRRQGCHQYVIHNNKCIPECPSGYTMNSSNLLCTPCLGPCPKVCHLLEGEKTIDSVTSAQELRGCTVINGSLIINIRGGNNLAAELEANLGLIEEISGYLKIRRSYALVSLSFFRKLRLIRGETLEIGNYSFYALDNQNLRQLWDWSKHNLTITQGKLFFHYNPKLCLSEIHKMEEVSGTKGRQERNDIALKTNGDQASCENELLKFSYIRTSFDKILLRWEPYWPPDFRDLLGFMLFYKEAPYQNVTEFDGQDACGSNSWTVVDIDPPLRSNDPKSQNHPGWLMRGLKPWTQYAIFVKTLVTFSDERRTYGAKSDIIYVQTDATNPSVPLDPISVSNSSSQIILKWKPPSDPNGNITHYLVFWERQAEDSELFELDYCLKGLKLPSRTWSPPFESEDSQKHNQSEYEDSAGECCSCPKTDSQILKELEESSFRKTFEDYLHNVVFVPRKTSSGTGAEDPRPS

With `O=C1C(O)=C(c2ccccc2)C(=O)C(O)=C1/C=C/c1ccc(F)cc1` [Example 27, 2-[(E)-2-(4-Fluorophenyl)ethenyl]-3,6-dihydroxy-5-phenyl-1,4-benzoquinone], the activation at 10 µM at human insulin receptors worked out at 87.7%. In the data set with protein kinase B, the “activation percentage for protein kinase B (phosphorylation in relation to 50 nM insulin fixed at 100%)” value came to 48.9%.

Consider `C/C(=C\c1ccccc1)C1=C(O)C(=O)C(c2ccccc2)=C(O)C1=O` [Example 10, 2,5-Dihydroxy-3-[(E)-1-methyl-2-phenylethenyl]-6-phenyl-1,4-benzoquinone], for which the “activation percentage for protein kinase B (phosphorylation in relation to 50 nM insulin fixed at 100%)” value with protein kinase B is 91%.

Take `O=C1C(O)=C(c2ccc3ccccc3c2)C(=O)C(O)=C1c1ccc(Cl)cc1` [Example 16, 2-(4-Chlorophenyl)-3,6-dihydroxy-5-(2-naphthyl)-1,4-benzoquinone]: the “insulinaemia, variation compared with the controls” value in the data set with ob/ob C57BL/6 mice (fed, 10th day) was −84.2%. In addition, the “glycaemia, percentage variation in relation to D0” value with ob/ob C57BL/6 mice (fed, 10th day, controls +4.5%) is given as −60.7%. Also, the “body weight, percentage variation in relation to D0” value in the data set with ob/ob C57BL/6 mice (control group +4.9%) is given as −26.9%.

As for `O=C1C(O)=C(c2ccccc2)C(=O)C(O)=C1/C=C/c1ccc(Br)cc1` [Example 3, 2,5-Dihydroxy-3-phenyl-6-[(E)-2-(4-bromophenyl)-ethenyl]-1,4-benzoquinone], the melting point lay in the range of 240 to 241 °C.

Turning to `O=C1C(O)=C(c2ccccc2)C(=O)C(O)=C1/C=C/c1ccccc1` [Example 1, 2,5-Dihydroxy-3-phenyl-6-[(E)-2-phenylethenyl]-1,4-benzoquinone], the melting point was in the range of 259 to 260 °C. Also, the “triglycerides, reduction compared with the control” value in the data set on ob/ob C57BL/6 mice (fed, 10th day) is on record as −37.8%.

As to `O=C1C(O)=C(c2cccc(Cl)c2)C(=O)C(O)=C1/C=C/c1ccccc1` [Example 30, 2-(3-Chlorophenyl)-3,6-dihydroxy-5-[(E)-2-phenylethenyl]-1,4-benzoquinone], the activation at 10 µM on human insulin receptors is 134%.
